In one series the test system is MC3T3-E1 cells. The series can be described thus: Calcium assay (pro-calcifying activity) on mouse pre-osteoblastic cells. The format is cell-based. To be noted: for production of calcium by the MC3T3-E1 cells (calcium dosage in culture medium): 9 days, 4 mM Pi, 30 μM compound, vs control+Pi (FIG. 1); for increase in calcification relative to the mineralizing medium: MC3T3-E1, 25 days. The procedure: FIG. 1 represents the calcium dosage in the MC3T3-E1 culture medium (in […] of protein per well) after 9 days of exposure of these cells to 4 mM of Pi ([…]) (control+Pi) and 4 mM of Pi in the presence of 30 μM of each of the compounds referenced DP2SNA, DP2NA, DP2K and DP2S;
(§1) For all experiments, a mouse pre-osteoblastic cell line (MC3T3-E1, ATCC) and human primary osteoblastic cells (HOb, Promocell) were used. The mouse pre-osteoblastic cells were cultured in 75 cm^2 flasks, containing 15 mL of α-MEM medium (M4526, SIGMA) and 10% fetal calf serum (FCS), containing 1% Penicillin/Streptomycin antibiotics and 1% glutamine. Similarly, human HOb cells were cultured in 75 cm 2 flasks containing 15 mL of proliferation medium (Human Osteoblast Proliferation Medium, PromoCell). The cells are maintained in the oven at 37° C., with 5% CO2 and 90% humidity. The medium was changed every three days.
(§2) MC3T3-E1 cells were seeded in 6-well plates at 63,700 cells/well to be treated in order to extract RNA or for alkaline phosphatase enzymatic activity assay and in 48-well plates for the calcium assay at 5250 cells/well. The HOb cells were seeded at 182,000 cells/well in 6-well plates for the extraction of RNA or for the alkaline phosphatase enzymatic activity assay; at 15,000 cells/well in 48-well plates for the calcium assay; at 10,000 cells/well in 48-well plates for the MTT test or the WST-1 test and at 100,000 cells/well in 6-well plates for the protein extraction or for the fluorescence.
(§3) In order to induce the mineralization, the MC3T3-E1 cells were treated with α-MEM medium containing 5% FCS to which 10 mM of β-glycerophosphate and 50 μg/mL of ascorbic acid are added. The HOb cells were treated with the “Osteoblast mineralization medium” (Promocell). […] After filtration, the cells were treated with the respective media (500 μL per well of the 48-well plate and 2 mL per well of the 6-well plate).
The release of calcium in the culture medium of mouse pre-osteoblastic cells (MC3T3-E1) has been studied.
An increase in calcification was observed, relative to the mineralizing medium (FIG. 2), in the presence of DP2R0 at 15 μM (40±2%), at 30 μM (28±18%) and at 50 μM (40±28%), and DP2NA at 15 μM (15±14%), at 30 μM (33±12%) and at 50 μM (10±19%).

Another series deals with HOb cells. The series can be described thus: Calcium assay (pro-calcifying activity, mineralization) on human primary osteoblastic cells. The format is cell-based. To be noted: for increase in calcification relative to the mineralizing condition: HOb. The procedure:
as §1, §2, §3
The calcification has also been studied on human osteoblastic cells (Hob, PromoCell, Heidelberg, Germany). They are isolated from femoral trabecular bone tissues.

The nature of series [1]: Acetate migration DP2/DP2′ in solution (stability). The series is classed as physicochemical. The conditions noted are these: water, after 44 days. The procedure:
The compound DP2′ was extracted from the DP2-DP2′ mixture which is formed when the compound DP2 is dissolved in water. The compound DP2′ has been separated by preparative HPLC chromatography with water as elution solvent.
The inventors have observed that when the compound DP2′ was in water, the delocalization of the acetate group was also present, but with very slow kinetics compared to the DP2→DP2′ reaction. Thus, a solution of DP2′ in water which is left to rest contains, after 44 days, 10 to 15% of DP2. The DP2′ therefore remains alone in the water for a given duration which is quite long. It is therefore possible to test the biological effect of DP2′ in solution in water.
Similarly, the inventors have observed that the kinetics of the DP2→DP2′ reaction is such that it is also possible to test the biological activity of the compound DP2 alone after extraction of the formed compound DP2′. Thus, the two compounds DP2 and DP2′ can coexist or not in water for a given duration.
In methanol, for example, the compound DP2 is therefore alone.
There is about ⅔ of DP2R2 for ⅓ of DP2′. The compound DP2′ comes from a migration of the acetate group (R2) on the 30H position. The compound DP2′ could be isolated and synthesized as previously indicated. […]

For `CCCO[C@H]1OC(CO)[C@@H](O[C@@H]2OC(CO)[C@@H](O)C(O)C2NC(C)=O)C(O)C1O` (stereo partly drawn) [DP2NA, n-propyl, α-D-Glucopyranoside, 4-O-(2-acetamido-2-deoxy-β-D-glucopyranosyl)], the “production of calcium by the MC3T3-E1 cells (calcium dosage in culture medium)” value in the series with MC3T3-E1 cells was “increase the production of calcium”. The entries for the “increase in calcification relative to the mineralizing medium” value with MC3T3-E1 cells (15 μM), in the series with MC3T3-E1 cells (30 μM) and in the series with MC3T3-E1 cells (50 μM) were 15±14%, 33±12% and 10±19%, respectively. The “increase in calcification relative to the mineralizing condition” value in the series on HOb cells (14 days, 15 μM) turned out to be 45±42%; in the series on HOb cells (14 days, 30 μM), 44±7%; with HOb cells (14 days, 50 μM) it was 35±8%. Besides, in the series with HOb cells (lower concentrations 5, 7.5 and 10 μM (FIG. 4)), the “mineralization of the HOb cells relative to the mineralizing medium alone” value is listed as “decrease in mineralization”.
As to `CCCO[C@H]1O[C@H](COS(=O)(=O)[O-])[C@@H](O[C@@H]2O[C@H](CO)[C@@H](O)[C@H](O)[C@H]2NC(C)=O)[C@H](O)[C@H]1OC(C)=O.[Na+]` [DP2S, n-propyl, 2-0-acetyl-6-O-sulfo-α-D-Glucopyranoside, 4-O-(2-acetamido-2-desoxy-β-D-glucopyranosyl), monosodium salt], the “production of calcium by the MC3T3-E1 cells (calcium dosage in culture medium)” value in the series with MC3T3-E1 cells was “significantly inhibits the expression of calcium”.
On the same count and under the same terms, then `CCCO[C@H]1OC(COS(=O)(=O)[O-])[C@@H](O[C@@H]2OC(CO)[C@@H](O)C(O)C2NC(C)=O)C(O)C1O.[Na+]` (stereo partly drawn) [DP2SNA, n-propyl, 6-O-sulfo-α-D-Glucopyranoside, 4-O-(2-acetamido-2-desoxy-β-D-glucopyranosyl), monosodium salt], with “increase the production of calcium”.
As to `CCCOC1OC(CO)C(OC2OC(CO)C(O)C(O)C2NC(C)=O)C(OC(C)=O)C1O` [DP2′, n-propyl, 3-0-acetyl-α-D-Glucopyranoside, 4-O-(2-acetamido-2-deoxy-β-D-glucopyranosyl)], the “DP2 content of a solution of DP2′ in water left to rest” value in series [1] is reported as 10 to 15%. The “percentage of mineralization of the HOb cells” value in the series on HOb cells (14 days, mineralizing conditions, 30 μM) is 143.806±36.657%.
